# “Also recorded” adds a separate entry of the source. Read-outs that look alike come from different tables or passages of the source.
# How the values were obtained:
# [1] = cited from earlier work; for tolerability in patients: reported clinical trials
# A375 melanoma cells = test: Clonogenic survival assay; assay type: cell-based, human; conditions: for development / acquisition of resistance to MAPKi (clonogenic survival): secondary agent combined with MAPKih (Vem 5 μM; Cobi 0.1 μM), PBA 2 mM, HCQ 12 μM
# Method: To determine if the observed MAPKi-induced GSH imbalance plays a causal role in development of resistance, clonogenic survival assays were conducted in which cells were treated with GSH-synthesis inhibitor buthionine sulfoximine (BSO) (0.5 mM) with and without Vem. BSO depletes cellular GSH by inhibiting GSH synthesis via competitive inhibition of gamma-glutamylcysteine synthetase.
# A375 cells = test: Expression of ER-stress/UPR markers (GRP78/BiP, eIF2α); assay type: cell-based, human
# Method: The GSH/GSSG ratio is known to be a fundamental buffering parameter of the ER, and ER-stress responses have been implicated in the initiation of autophagy and acquisition of resistance to MAPKih. Thus, the impact of MAPKi-induced GSH imbalance on the expression of ER-stress response proteins was assessed. Changes in UPR markers GRP78 (BiP) and eI2Fa (phospho-eI2Fa to inactivated eI2Fa) were determined by western blot in A375 cells treated with Vem alone and in combination with Cobi (FIGS. 2A-C). […] To explore the role of MAPKi-induced GSH imbalance on activation of UPR, similar time-course experiments were performed to monitor the expression of UPR markers with continuous MAPKi with and without GSH depletion (using BSO). Depletion of the GSH pool using BSO in this way rendered the cells incapable of initiating the ER-stress response and no increase in the expression of GRP78 was seen when A375 cells were treated continuously with Vemurafenib in the presence of BSO (FIG. 2D).
# A375-CG-LC3B cells = test: Autophagic flux (mCherry:EGFP ratio) by flow cytometry; assay type: cell-based, human
# Excerpt: (§1) UPR responses signal the activation of cytoprotective pathways such as autophagy. The role of GSH in mediating the acquisition of resistance was further explored by examining autophagy and autophagic flux responses to MAPKi in A375 metastatic melanoma cells.
# Briefly, A375-CG-LC3B cells were obtained using a retroviral vector containing a coding sequence for a mCherry-EGFP-LC3B tandem protein (pBABE-puro mCherry-EGFP-LC3B, #22418, Addgene). The retrovirus was packaged in GP2-293 cells by co-transfection of 1 μg of viral DNA constructs and 1 μg of envelope plasmid (pVSV-G) in 20 μL PolyFect transfection reagent (Qiagen) for 48 hours at 37° C., 5% CO2. Virus-rich media was collected, aliquoted, and stored at −80° C. Cells were infected using the virus-rich media in DMEM (high glucose) for 12 h followed by incubation in complete media (high-glucose DMEM with 10% FBS) for 24 h. […] Autophagy was quantified as autophagic flux (Af) using A375-CG-LC3B cells.
# Where Fmcherry is mcherry fluorescence measured using the 532 nm laser and FGFP is GFP fluorescence measured using the 488 nm laser on LSR II. […] Samples were analyzed on an LSR II flow cytometer (BD). Af was calculated for live, non-apoptotic (Hoechst negative, Annexin V negative) population using the derived parameter function in Flow Jo software (V10.4). […]
# [2] = test system: MAPKi-resistant 451LuBR melanoma xenografts; test: 451LuBR (BRAFi resistant melanoma) xenograft mouse model; assay type: in vivo, mice
# Method: FIGS. 5A-5F. Pharmacologically Inhibiting Autophagy and ER-stress Simultaneously in Combination with MAPKih Improve Overall Survival in Vivo. Simultaneous inhibition of autophagy and ER-stress with MAPKih (Vem and Vem+Cobi) improves outcome in melanoma tumor bearing mice. (A-D) Simultaneous inhibition of ER-stress using PBA (250 mg kg^−1 twice a day) and autophagic flux using (HCQ 10 mg kg^−1 twice a day) with MAPKih (Vem 16 mg kg^−1 twice a day; Cobi 1 mg kg^−1 once a day) improves outcome in mice bearing MAPKi-sensitive A375 melanoma xenografts (N=13). (A) estimated tumor growth curves in response to PBA and HCQ with Vem; (B) estimated tumor growth curves in response to PBA and HCQ with Vem+Cobi; (C) overall survival in response to PBA and HCQ with Vem; (D) overall survival in response to PBA and HCQ with Vem+Cobi. (E, F) Simultaneous inhibition of ER-stress using PBA (250 mg kg^−1 twice a day) and autophagic flux using (HCQ 6.6 mg kg^−1 twice a day) with MAPKih (Vem 10 mg kg^−1 twice a day) improves outcome in mice bearing MAPKi-resistant 451LuBR melanoma xenografts (N=10); (E) estimated tumor growth curves in response to PBA and HCQ with Vem; and (F) overall survival in response to PBA and HCQ with Vem.
# The potential for simultaneous inhibition of ER-stress and autophagy in overcoming resistance to MAPKih was further explored using a 451LuBR (BRAFi resistant melanoma) cell-line xenograft mouse model treated in the same way. Predictably, administering Vem alone had no effect of tumor growth and overall survival, establishing that these tumors are resistant to BRAFi.
# 451 Lu melanoma cells = test: Clonogenic survival assay; assay type: cell-based; conditions: ME added to the combination of vem and BSO
# Method: FIGS. 7A-7L. Reduced Thiols Play a Vital Role in Development of Resistance to MAPKi. (A-E) Reduced thiols play a vital role in development of resistance to MAPKi in vitro. Changes in (A) cellular concentration of reduced glutathione (GSH, nmoles/mg protein) (B) cellular concentration of oxidized glutathione (GSSG, nmoles/mg protein) of A375 melanoma cells when treated with buthionine sulfoximine (BSO, 0.5 mM) and 2-mercaptoethanol (ME, 150 μM) in presence of vemurafenib (Vem, 5 μM) (N=3). Difference in clonogenic survival of A375 (N=2, n=3) and 451 Lu (N=1, n=3) melanoma cells when treated with vem alone compared to (C) vem in combination with ME and (D) vem in combination with BSO. (E) Addition of ME to the combination of vem and BSO rescues clonogenic survival in A375 and 451 Lu melanoma cells. […] Spider plots show individual tumor growth rates in A375 tumor bearing mice (N=8) when (F) untreated; (G) treated with BSO (15 mM in drinking water); (H) treated with AIN-76A rodent diet mixed with vemurafenib (PLX4720); (I) combination of AIN-76A rodent diet mixed with vemurafenib (PLX4720) with BSO. (J) Levels of total cellular GSH in tumor tissue obtained from untreated mice and mice treated with BSO. (K) Progression Free Survival (PFS) and (L) Overall survival (OS). ±SEM; *p=0.01 to 0.05, **p=0.001 to 0.01 ****P<0.0001.
# metastatic melanoma = conditions: cited from earlier work; for progression-free survival (time tumor progression is slowed): melanoma patients, average
# [3] = test system: MAPKi-sensitive A375 melanoma xenografts; test: A375 xenograft bearing mice treated with MAPKih with or without PBA and HCQ; assay type: in vivo; conditions: Vem 16 mg/kg twice a day, Cobi 1 mg/kg once a day, PBA 250 mg/kg twice a day i.p., HCQ 10 mg/kg twice a day
# Method: To further explore the potential of simultaneous pharmacological inhibition of ER-stress and autophagy in preventing resistance to MAPKih, A375 xenograft bearing mice (FIGS. 5A-D) were treated with MAPKih or MAPKih in combination with PBA (250 mg kg-1 per dose, twice a day, i.p.) and HCQ (10 mg kg-1 per dose, twice per day, oral gavage). […] The experimental groups included MAPKi by Vem (BRAFih) (16 mg kg-1 per dose, twice a day, oral gavage) alone and in combination with Cobi (MAPKih) (1 mg kg-1 per dose, once a day, oral gavage).
# [4] = test system: A375 BRAFV600E mutant melanoma cells; test: Oxygen consumption / extracellular acidification (Seahorse metabolic profiling); assay type: cell-based, human; conditions: Vem 5 μM continuous; plateaued within approximately 2 weeks
# Method: (A) The ratio of basal metabolic oxygen consumption (BMOC)/extracellular acidification rate (ECAR) in response to continuous exposure to 5 μM Vem (N=6) as determined by Seahorse metabolic profiling; (B) Measurement of cellular pro-oxidant levels as determined by dyhdroethidium (DHE) oxidation in response to 5 μM Vem (N=3); (C) GSSG:GSH in response to Vem (N=2); (D) total cellular GSH in response to Vem (N=2).
# [5] = test system: A375 BRAFV600E mutant melanoma cells; test: Glutathione (GSH, GSSG) levels in cells under prolonged MAPKi; assay type: cell-based, human
# Excerpt: (§2) Initial response rates to MAPKih (BRAFih and BRAFih+MEKih) are often significant (and sometimes remarkable), but melanoma almost invariably (within months) develops resistance to these treatments. It has been further documented that continuous MAPKi brings about changes in cellular metabolism accompanied with a shift in metabolism from glycolysis to oxidative phosphorylation in vitro. Changes were examined in metabolism and oxidative state of A375 BRAFV600E mutant melanoma cells from initiation of BRAFih (Vem, 5 μM) through the acquisition of resistance (approximately 30 days). […] Changes in cellular metabolism coincided with a nearly identical pattern in the cellular redox state of the cell when quantified by the method of DHE oxidation by fluorescence intensity. […] Considering the critical relationship between cellular responses to oxidative stress and the glutathione cellular redox buffer, the changes in glutathione (GSH) levels and the ratio of GSH to the oxidized form (GSH:GSSG) with prolonged MAPKi in the A375 cells treated with Vem (5 μM) were evaluated over the same time period (FIG. 1D).
# [6] = test system: A375 BRAFV600E mutant melanoma cells; test: DHE oxidation (cellular redox state) by fluorescence intensity; assay type: cell-based, human; conditions: Vem 5 μM; subsided with acquisition of resistance
# Excerpt: as §2
# [7] = test system: A375 metastatic melanoma cells; test: Autophagosome area fraction (TEM) and LC3B-II expression; assay type: cell-based, human
# Excerpt: as §1
# [8] = Vem 10 mg/kg, PBA 250 mg/kg, HCQ 6.6 mg/kg, each twice a day, compared to control
# [9] = A375 cells, prolonged MAPKi (Vem 5 μM)
structure (smiles),measurement,setting,value
"CCCCS(=N)(=O)CCC(N)C(=O)O [BSO, L-buthionine-[S,R]-sulfoximine]",tolerability in patients,[1],well-tolerated
same,clonogenic survival,"A375 melanoma cells; BSO 0.5 mM alone, without MAPKih",did not affect
same,development / acquisition of resistance to MAPKi (clonogenic survival),A375 melanoma cells; BSO 0.5 mM,completely inhibits acquisition of resistance; also recorded: prevents acquisition of resistance
same,expression of GRP78 (BiP),A375 cells; continuous Vem in the presence of BSO 0.5 mM,diminished
"CCN(CCO)CCCC(C)Nc1ccnc2cc(Cl)ccc12 (stereo not shown) [HCQ, Hydroxychloroquine]",autophagic flux induced by MAPKi,"A375-CG-LC3B cells; secondary agent (BSO 0.5 mM, PBA 2 mM, HCQ 12 μM) added to MAPKih, versus MAPKih alone",decreased
same,tolerability in patients,[1],well tolerated
same,development / acquisition of resistance to MAPKi (clonogenic survival),A375 melanoma cells; BSO 0.5 mM,prevented resistance
same,median / overall survival,[2]; [8],significantly enhanced
same,complete response (complete remissions),[2]; share of mice,20%
"OCCS [ME, 2-mercaptoethanol]",clonogenic survival on addition of ME to vem and BSO,451 Lu melanoma cells,rescues
same,clonogenic survival on addition of ME to vem and BSO,"A375 melanoma cells; ME 150 μM, BSO 0.5 mM, Vem 5 μM",reversed; also recorded: rescues
"O=C(O)CCCc1ccccc1 [PBA, phenylbutyric acid]",tolerated dose,[1]; patients suffering from urea cycle disorders,up to 27 g per day
same,tolerability in patients,[1],safely administered
"CCCS(=O)(=O)Nc1ccc(F)c(C(=O)c2c[nH]c3ncc(-c4ccc(Cl)cc4)cc23)c1F [Vem, Vemurafenib]",autophagic flux,A375-CG-LC3B cells; continuous MAPKi (Vem 5 μM; Cobi 0.1 μM) versus untreated cells,increased
same,progression-free survival (time tumor progression is slowed),metastatic melanoma; listed as Vemurafenib,about 7.2 months
same,progression-free survival (time tumor progression is slowed),metastatic melanoma; listed as vemurafenib,7.2 months
same,rate of tumor growth,[3],similar
same,expression of ER-stress markers,"A375 cells; continuous MAPKi, later decrease to pre-treatment levels",gradual increase
same,ratio of oxygen consumption linked to basal mitochondrial respiration (OCR) and extracellular acidification rate (ECAR),[4],initial increase
same,median / overall survival,[2]; [8],no effect
same,tumor growth rate,[2]; [8],no effect
same,total GSH concentration after adaptation,"[5]; >170 d Vem treatment, versus untreated control cells",re-equilibrated to levels comparable to untreated control cells
same,depletion of glutathione (GSH),[5]; [9],68%
same,increase in oxidized glutathione (GSSG),[5]; [9],30 fold
same,oxidation of DHE,[6],initial increase
same,area fraction of cells covered by autophagosomes (TEM),[7]; Vem 5 μM,significant increase
same,expression of autophagic flux marker LC3B-II,[7]; continuous MAPKi by Vem,significant increases
"CC(C)(C)c1nc(-c2cccc(NS(=O)(=O)c3c(F)cccc3F)c2F)c(-c2ccnc(N)n2)s1 [dabrafenib, Dabrafenib]",time until resistance occurs,metastatic melanoma; clinical trial data,6 to 7 months
